This passage reports Kd, IC50 and Activity results from ChEMBL document CHEMBL6074620, “Discovery of a triphenylamine-based ligand that targets mitochondrial DNA G-quadruplexes and activates the cGAS-STING immunomodulatory pathway” (Eur J Med Chem, 2024).

Data set [1] addresses Quadruplex DNA. The data set is described as follows: Binding affinity to 3-terminal mt6363 DNA (unknown origin) assessed as dissociation constant by TAMRA-labeled G4 quenching assay. In kind it is nucleic-acid assay.
The target in data set [2] is Quadruplex DNA. The data set is described as follows: Binding affinity to 5-terminal mt6363 DNA (unknown origin) assessed as dissociation constant by TAMRA-labeled G4 quenching assay. The class given is nucleic-acid assay.
For the next data set, the system named is MDA-MB-231. The data set is described as follows: Cytotoxicity against human MDA-MB-231 cells assessed as reduction in cell viability incubated for 24 hrs by CCK-8 assay. The class given is functional, cell-based. The settings on record: MDA-MB-231, 24 h.
Another data set has as its system 4T1. Nature of the data set: Cytotoxicity against mouse 4T1 cells assessed as reduction in cell viability incubated for 24 hrs by CCK-8 assay. The class given is functional, cell-based. The settings on record: 4T1, 24 h.
A short description of data set [3]: Cytotoxicity against human MCF-10A assessed as cell growth inhibition incubated for 24 hrs by CCK-8 assay. The class given is toxicity, cell-based. Particulars: MCF-10A cells. (Tetrazolium dyes change colour on reduction, which living cells bring about.)
The next data set relates to Mus musculus. The data set is described as follows: Immunostimulatory activity in female BALB/c mouse implanted with mouse 4T1 cells assessed as increase in CD8+ T cells in spleen 2.5 mg/kg, iv by flow cytometry. The class given is functional, organism-based. (In general: A flow cytometer gives signals particle by particle.)

Each structure is given as a SMILES string. pIC50, pKd: −log10 of the molar value. Activity calls are given as the source filed them. No cut-off for these calls is given here.

As a reminder, the pKd is the Kd on a negative log10 scale, so that one unit is a factor of ten. Broadly, the pIC50 is −log10 of the IC50, conventionally taken in molar units. A word on the IC50: it is the midpoint of a concentration-inhibition curve. With `C[N+]1=C(/C=C/c2ccc(N(c3ccccc3)c3ccccc3)cc2)C(C)(C)c2ccccc21`, the figures for the pKd on Quadruplex DNA [1] and on Quadruplex DNA [2] were 5.20 and 5.14, respectively. In addition, the pIC50 is 5.59 in the data set with MDA-MB-231 and 5.32 in the data set on 4T1. In addition, the IC50 at 24 h in data set [3] came out at 5 µM.

Take `COc1ccc(N(c2ccc(/C=C/C3=[N+](C)c4ccccc4C3(C)C)cc2)c2ccc(OC)cc2)cc1`: the results for the negative logarithm of the Kd (pKd) on Quadruplex DNA [1] and on Quadruplex DNA [2] were 5.68 and 5.37, respectively. Moreover, the pIC50 in the data set on MDA-MB-231 is 5.40; in the data set on 4T1 it was 5.46. For the same molecule, the IC50 at 24 h in data set [3] amounted to 8.5 µM.

Turning to `COc1cccc2c1C(=O)c1c(O)c3c(c(O)c1C2=O)C[C@@](O)(C(=O)CO)C[C@@H]3O[C@H]1C[C@H](N)[C@H](O)[C@H](C)O1`, the outcome in the data set on Mus musculus was Active.

Consider `C[N+]1=C(/C=C/c2ccc(N(c3ccccc3)c3ccccc3)cc2)C(C)(C)c2c1ccc1ccccc21`, for which the pKd on Quadruplex DNA [1] is 5.96; on Quadruplex DNA [2] it was 5.85. The negative logarithm of the IC50 (pIC50) in the data set with MDA-MB-231 was 5.55; in the data set on 4T1, 5.37. The IC50 at 24 h in data set [3] turned out to be 7 µM.

Turning to `C[n+]1c(/C=C/c2ccc(N(c3ccccc3)c3ccccc3)cc2)ccc2ccccc21`, the pKd is 5.30 on Quadruplex DNA [1] and 5.26 at Quadruplex DNA [2]. Further, the negative-log IC50 (pIC50) in the data set on MDA-MB-231 is 5.47; with 4T1, 5.02. Moreover, the IC50 at 24 h in data set [3] was found to be 38 µM.

Turning to `COc1ccc(N(c2ccc(/C=C/c3ccc4ccccc4[n+]3C)cc2)c2ccc(OC)cc2)cc1`, the pKd at Quadruplex DNA [1] was 5.49; at Quadruplex DNA [2], 5.05. Further, the negative-log IC50 (pIC50) is 5.27 in the data set with MDA-MB-231 and 5.00 with 4T1. Besides, the IC50 at 24 h in data set [3] amounted to 39.4 µM.
